Laboratory results from article PMC12624432, “Development of Novel ^18F‑Labeled Selective Orexin‑2 Receptor Radioligands for Positron Emission Tomography” (ACS Pharmacology & Translational Science, 2025).
“Also recorded” adds a separate entry of the source.

Tests used:
[1] = test system: 59 major CNS targets (GPCRs, enzymes, ion channels, transporters); assay: Off-target binding screening of 59 major CNS targets; conditions: 10 μM; significant = > 50%; except sigma 2 (and NR2B for 1)
Procedure: (§1) Target selectivity over OX1R exceeded 600-fold for both compounds, satisfying a key prerequisite for selective OX2R imaging. […] CNS penetration was further predicted using Percepta, yielding log BB values of −0.14 and −0.36 for compounds 1 and 2, respectively, well above the empirical threshold for BBB permeability (log BB > −1). Additionally, off-target binding screening was conducted for compounds 1 and 2 toward 59 major CNS targets (Figures S1 and S2).
(§2) 1. Supporting Figures and Tables
(§3) Figure S1. Off-target pharmacological evaluation of compound 1. Initial screening of 59 major CNS targets at a concentration of 1 at 10 μM, including common GPCRs, enzymes, ion channels, and transporters. All data are mean ± SD (n ≥ 3).
(§4) Figure S2. Off-target pharmacological evaluation of compound 2. Initial screening of 59 major CNS targets at a concentration of 2 at 10 μM, including common GPCRs, enzymes, […]

OX2R [2] = molecular target: OX2R; set-up: method as in earlier work; conditions: no binding method in paper; compounds previously reported; read-out: K i/OX2; cited from earlier work
OX1R = molecular target: OX1R; set-up: method as in earlier work; conditions: no binding method in paper; compounds previously reported; read-out: K i/OX1; cited from earlier work
NR2B receptors = NR2B receptors (Homo sapiens, UniProt Q05586+Q13224); assay: Off-target binding, NR2B; conditions: read-out: K i NR2B
Chain of NR2B receptors (Q13224 27-1484, other chains not shown): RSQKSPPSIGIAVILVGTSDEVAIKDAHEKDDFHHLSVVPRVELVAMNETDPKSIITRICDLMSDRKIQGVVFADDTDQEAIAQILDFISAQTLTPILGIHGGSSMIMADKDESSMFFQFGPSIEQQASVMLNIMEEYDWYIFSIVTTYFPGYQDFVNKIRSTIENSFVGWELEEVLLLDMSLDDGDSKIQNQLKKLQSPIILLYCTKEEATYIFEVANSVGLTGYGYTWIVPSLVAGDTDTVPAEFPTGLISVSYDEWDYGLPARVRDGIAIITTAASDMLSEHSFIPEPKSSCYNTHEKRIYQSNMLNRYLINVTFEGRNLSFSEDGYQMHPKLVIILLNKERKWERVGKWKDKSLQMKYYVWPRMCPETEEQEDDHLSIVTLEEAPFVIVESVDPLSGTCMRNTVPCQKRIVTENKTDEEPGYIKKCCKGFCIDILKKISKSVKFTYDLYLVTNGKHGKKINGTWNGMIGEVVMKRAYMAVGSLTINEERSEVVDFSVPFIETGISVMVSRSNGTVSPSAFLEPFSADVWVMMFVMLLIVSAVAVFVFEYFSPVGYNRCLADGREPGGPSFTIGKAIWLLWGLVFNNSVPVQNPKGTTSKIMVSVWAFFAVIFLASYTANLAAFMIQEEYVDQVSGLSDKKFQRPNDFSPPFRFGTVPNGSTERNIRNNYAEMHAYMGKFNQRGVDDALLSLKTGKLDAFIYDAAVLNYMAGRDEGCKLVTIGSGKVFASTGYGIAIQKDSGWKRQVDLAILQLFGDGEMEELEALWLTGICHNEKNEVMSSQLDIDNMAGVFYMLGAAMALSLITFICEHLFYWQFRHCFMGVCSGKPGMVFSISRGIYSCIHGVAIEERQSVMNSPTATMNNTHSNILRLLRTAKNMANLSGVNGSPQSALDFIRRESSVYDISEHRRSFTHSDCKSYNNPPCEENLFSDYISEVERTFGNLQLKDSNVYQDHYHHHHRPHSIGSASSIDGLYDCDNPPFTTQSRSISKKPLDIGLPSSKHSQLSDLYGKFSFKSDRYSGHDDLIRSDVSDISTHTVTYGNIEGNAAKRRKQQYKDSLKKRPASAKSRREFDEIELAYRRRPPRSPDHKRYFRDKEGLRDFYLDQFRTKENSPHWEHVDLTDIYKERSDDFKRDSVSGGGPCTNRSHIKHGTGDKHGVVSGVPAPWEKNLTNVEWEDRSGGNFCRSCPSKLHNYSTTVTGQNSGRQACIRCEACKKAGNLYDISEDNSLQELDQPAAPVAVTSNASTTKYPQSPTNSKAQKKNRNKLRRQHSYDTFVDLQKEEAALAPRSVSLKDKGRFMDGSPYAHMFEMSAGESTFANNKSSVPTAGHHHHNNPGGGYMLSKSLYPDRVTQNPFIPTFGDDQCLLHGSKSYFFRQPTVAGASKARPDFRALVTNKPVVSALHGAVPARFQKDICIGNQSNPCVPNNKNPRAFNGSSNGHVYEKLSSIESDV
Procedure: as §1, §2, §3, §4

OX2R [3] = assay: OX2R binding affinity; conditions: for selectivity over OX1R: OX2R over OX1R; for selectivity (OX2R/OX1R): ratio of Ki OX1 to Ki OX2
sigma-2 = sigma-2 (Homo sapiens, UniProt Q5BJF2); assay: Off-target binding, sigma-2; conditions: read-out: K i sigma-2
Chain of sigma-2 (Q5BJF2 whole entry): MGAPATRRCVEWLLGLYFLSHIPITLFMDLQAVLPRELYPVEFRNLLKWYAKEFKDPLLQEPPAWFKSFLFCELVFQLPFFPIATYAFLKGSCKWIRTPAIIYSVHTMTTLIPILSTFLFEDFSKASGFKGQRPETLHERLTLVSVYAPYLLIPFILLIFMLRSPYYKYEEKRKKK
Procedure: as §1, §2, §3, §4

Experimental log D = type: physicochemical
Excerpt: 1 Representative Pharmacological and Physicochemical Properties of 1 and 2 | column: compound 1; compound 2

OX2R [4] = molecular target: T1, OX2R (Rattus norvegicus, UniProt P56719); assay: Dynamic PET imaging in the rat brain; type: in vivo, Sprague–Dawley rats; set-up: from tissue; host or cells: brain of living Sprague-Dawley rats; conditions: for tracer uptake reduction under blocking: EMPA or LSN2424100 1 mg/kg after elacridar pretreatment, all brain regions; for peak SUV in brain: baseline, 0.5 min postinjection; for increase in SUV0–60 min with elacridar: co-administration of elacridar 5 mg/kg (P-gp/BCRP inhibitor), across brain regions
T1 sequence (P56719 1-460): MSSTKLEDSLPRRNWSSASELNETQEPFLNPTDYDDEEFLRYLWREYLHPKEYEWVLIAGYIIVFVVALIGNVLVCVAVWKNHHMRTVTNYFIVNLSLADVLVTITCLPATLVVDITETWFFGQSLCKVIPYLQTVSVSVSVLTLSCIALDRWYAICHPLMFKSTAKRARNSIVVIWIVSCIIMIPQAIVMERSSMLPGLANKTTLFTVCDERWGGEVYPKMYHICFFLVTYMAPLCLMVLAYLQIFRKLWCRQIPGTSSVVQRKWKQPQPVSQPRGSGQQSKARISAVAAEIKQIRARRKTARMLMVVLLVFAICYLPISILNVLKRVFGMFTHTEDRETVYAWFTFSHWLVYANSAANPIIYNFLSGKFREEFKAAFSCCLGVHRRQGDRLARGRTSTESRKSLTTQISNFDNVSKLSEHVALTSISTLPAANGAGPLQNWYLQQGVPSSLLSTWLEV
Procedure: PET imaging was performed according to previous reports , with minor modifications. [^18F]1 or [^18F]2 (40 μCi) was administered via the tail vein of SD rats, and dynamic scans were performed with a G8 PET scanner (Sofie) for 60 min. In the blocking study, elacridar (5 mg/kg) and OX2R antagonist (EMPA or LSN2424100, 1 mg/kg) were injected at 20 and 10 min before the administration of the tracer, respectively.

[5] = Radiometabolic analysis in plasma and brain; type: in vivo, SD rats; conditions: rat brain homogenate, 30 min postinjection
Procedure: According to a previous report, SD rats were euthanized 30 min after the administration of [^18F]1 or [^18F]2. The brain was collected, homogenized with cold MeCN and PBS, and centrifuged (14,000g, 5 min) at 4 °C. The supernatant was analyzed by HPLC, and both tracers and radiometabolites were collected and measured by a γ counter. The same procedure was conducted for plasma.

[6] = In vitro tracer stability in saline; type: physicochemical; conditions: over the studied time intervals
Procedure: (§5) [^18F]1 and [^18F]2 were obtained in 24% and 53% decay-corrected radiochemical yields (RCYs) with molar activities of 53 GBq/μmol and 38 GBq/μmol, respectively. […] Furthermore, in vitro stability tests of [^18F]1 and [^18F]2 were conducted in saline, serums, and liver microsomes across species.

[7] = In vitro tracer stability in liver microsomes; type: in vitro ADME; conditions: mouse, rat and human liver microsomes
Procedure: as §5
Figure S3. Stability of [ 18F]1 in liver microsomes. (A) Stability of [ 18F]1 in mouse liver microsome; (B) Stability of [18F]1 in rat liver microsome; (C) Stability of [ 18F]1 in human […]
Figure S4. Stability of [ 18F]2 in liver microsomes. (A) Stability of [ 18F]2 in mouse liver microsome; (B) Stability of [18F]2 in rat liver microsome; (C) Stability of [ 18F]2 in human […]
Figure S5. TACs of [ 18F]1 in the whole rat brain under baseline and blocking (elacridar, elacridar and EMPA, or elacridar and LSN2424100; elacridar in 5 mg/kg, EMPA and LSN2424100 in 1 mg/kg) conditions; All data are mean ± SD, n ≥ 3. […]

OX2R [8] = molecular target: T1, OX2R; assay: In vitro autoradiography on rat brain sections; type: binding; set-up: from tissue; host or cells: rat brain sections; conditions: blocking with EMPA, LSN2424100 or authentic reference compound, 10 μM, across regions
Procedure: According to a previous report, rat brain sections were incubated with Tris-HCl buffer (50 mM) and then with [^18F]1 or [^18F]2. In the blocking study, brain sections were incubated with the tracer in the presence of 1, 2, EMPA, or LSN2424100 (10 μM). Then the brain sections were washed with the cold buffer, dried, exposed to an imaging screen, and scanned with a Typhoon biomolecular imager.

[9] = In vitro tracer stability in serum; type: in vitro ADME; conditions: mouse, rat, nonhuman primate and human serum
Procedure: as §5

OX2R [10] = test system: OX2R; set-up: method as in not given; conditions: introduction, literature statement; ref not given; cited from earlier work

Molecule | off-target binding toward 59 major CNS targets [1] | Ki (OX2R [2]) [nM] | Ki (OX1R) [nM] | Ki (NR2B receptors) [nM] | selectivity over OX1R (OX2R [3]) | selectivity (OX2R/OX1R) (OX2R [3]) | Ki (sigma-2) [nM] | logD (Experimental log D) | tracer uptake reduction under blocking (OX2R [4]) | peak SUV in brain (OX2R [4]) | increase in SUV0–60 min with elacridar (OX2R [4]) [%] | intact parent tracer in brain [5] | radiometabolites in saline (stability) [6] | radiometabolites in liver microsomes (stability) [7] | autoradiography signal reduction under blocking (OX2R [8]) | radiometabolites in serum (stability) [9] | selectivity for OX2R (OX2R [10]) [fold]
Cc1c(C#N)ccnc1O[C@@H]1CC[C@@H](C)N(C(=O)c2cc(F)ccc2-c2nccs2)C1 [compound 1, 2-(((3R,6R)-1-(5-Fluoro-2-(thiazol-2-yl)benzoyl)-6-methylpiperidin-3-yl)oxy)-3-methylisonicotinonitrile] | No off-target activity was observed; also recorded: No significant off-target | 0.1 | 89 | 9480 | exceeded 600 fold | 890 | 2680 | 3.43 |  |  |  |  |  |  |  |  | 
Cc1c(C#N)ccnc1O[C@@H]1CC[C@@H](C)N(C(=O)c2cc([18F])ccc2-c2nccs2)C1 [[^18F]1] |  | 0.1 |  |  | > 600 fold |  |  |  | 40–43% | 2.1 | > 100 | ca. 90% | No appreciable radiometabolites were detected | No appreciable radiometabolites were detected | 54–84% | No appreciable radiometabolites were detected | 
CC1CCC(Oc2cc(C#N)ccn2)CN1C(=O)c1cc([18F])ccc1-c1ncccn1 (stereo not drawn) [[^18F]2] |  | 1 |  |  | > 600 fold |  |  |  | 23–46% | 1.8 | > 100 | ca. 90% | No appreciable radiometabolites were detected | No appreciable radiometabolites were detected | 51–71% | No appreciable radiometabolites were detected | 
orexin B: endogenous neuropeptide ligand of the orexin receptors, selective for OX2R |  |  |  |  |  |  |  |  |  |  |  |  |  |  |  |  | > 10
C[C@@H]1CC[C@@H](Oc2cc(C#N)ccn2)CN1C(=O)c1cc(F)ccc1-c1ncccn1 [compound 2, 2-(((3R,6R)-1-(5-Fluoro-2-(pyrimidin-2-yl)benzoyl)-6-methylpiperidin-3-yl)oxy)isonicotinonitrile] | No off-target activity was observed; also recorded: No significant off-target | 1 | 658 |  | exceeded 600 fold | 658 | 4730 | 2.54 |  |  |  |  |  |  |  |  | 
